The values below come from patent US20090305954A1, “HISTIDINE-CONTAINING DIASTEREOMERIC PEPTIDES AND USES THEREOF” (Yeda Research and Development Co. Ltd., priority 2005, published 2009).

Square brackets hold non-standard residues; d marks the D form. Peptide text beside a SMILES is read from it.

Series [1] has as its system AI CL1 human PC cells xenograft. In words: Inhibition of tumor growth in human prostate cancer xenografts, CL1. The format is in vivo, nude male mice. The protocol:
(i) Inhibition of tumor growth in human prostate cancer xenografts. Subcutaneouse (s.c.) implantation of human PC cells in mice was done as previously described in Gavish et al. (Gavish et al. 2002). Briefly, 0.1 ml AI CL1 or 22RV1 human PC cells (5×10^6 cells) in Matrigel were inoculated s.c. into the dorsal side of five to six week-old nude male mice weighing 20-25 g (Harlen Co., Israel). Two weeks after cell implantation, when the tumors diameter reached ≧5 mm (denoted as day 1), the diastereomer 13 and its all L-amino acid analog peptide (at 1 mg/kg, 0.1 mM), or vehicle (PBS, pH=7.4) were injected intratumorally (dosing volume of 2.5 ml/kg) three times a week for a total of 9 doses. Tumor size was measured by a caliper and recorded twice a week during a period of 28 days. Mice were weighed and tumor weight (mg) was estimated by using the formula of length×width×depth×0.52 in mm^3, assuming the specific gravity to be 1. At the end of the treatment, the mice were killed, and the tumors were removed, photographed, and weighed. The animal experimentation was conducted according to the rules of the Institutional Animal Care and Use Committee.
(In general: In xenograft studies the graft and the host belong to different species.)

The subject of series [2] is 22RV1 prostate tumor lung metastases. In words: Inhibition of prostate tumor-derived lung metastases formation. The source says:
During the experiment, the mice were monitored continuously for clinical signs of toxicity.

The subject of series [3] is PC3 human prostate cancer cell line. In words: XTT proliferation (cytotoxicity) assay, PC3. Type of series: cell-based. Particulars: PC3, pH 7.4, 24 h. The procedure: (§1) The CL1 human prostate carcinoma (PC) cell line is an androgen-independent (AI) subclone of LNCaP cell line, which was generated by culturing androgen-dependent (AD) LNCaP cells in charcoal-stripped, […], as described (Patel et al. 2000). 22RV1 human PC cells are AI sub-clones of the AD prostatic adenocarcinoma CWR22 xenograft (Sramkoski et al. 1999). CL1 and 22RV1 (ATCC, USA) were grown in RPMI-1640 supplemented with 10% FCS (Biological Industries, Beit Haemek, Israel). PC3 and DU145 are androgen-insensitive (AI) (non-responsive), invasive human prostate cancer cell lines. NIH-3T3 mouse fibroblast cell lines (ATCC, USA) were grown in DMEM supplemented with 10% BS. Murine Lewis lung carcinoma (LLC) cell lines were also grown in DMEM medium supplemented with 10% fetal calf serum and antibiotics under the same conditions as above.
The anticancer activity of the diastereomers 1, 5 and 11-16, 36-39, 42 and 44 was examined against human CL1 prostate cancer, murine LLC (Lewis lung carcinoma), DU 145 and PC3 cell lines. The cell selectivity of the diastereomeric peptides was also studied by examining their effect on NIH-3T3 normal mouse fibroblasts cell line.
A 96-well plate (Falcon) was used for the XTT proliferation assay. Cancer cells were grown for 24 hours (day 1) in RPMI-1640 medium (5×10^3, 7×10^3, 1×10^4 and 7×10^3 cells/100 μl for LLC, CL1, 22RVI, DU 145 and PC3, respectively) supplemented with 10% fetal calf serum and antibiotics, at 37° C., in humidified atmosphere at 5% CO2 and 95% air, resulting in growth medium pH of 7.4. […]
In day 3, XTT reaction solution was prepared by adding to 100 μl aliquots of activation solution (sodium 3′-[1-(phenyl-aminocarbonyl)-3,4-tetrazolium]-bis(4-methoxy-6-nitro) benzene sulfonic acid hydrate and N-methyl dibenzopyrazine methyl sulfate; mixed in a proportion of 50:1) (protected from light and kept in −20° C.), the substrate. […] The optical density was read at wavelength of 450 nm in an ELISA plate reader. Cell viability was determined relative to the control and final results were recorded. […]
On the technique in general: Formazan colour is commonly taken as a measure of viable cells.

Series [4] can be described thus: Interaction with Matrigel matrix, analysed by RP-HPLC and mass spectroscopy. The format is in vitro ADME. Particulars: mixed with Matrigel matrix for one hour.
The subject of another series is 22RV1 human PC cells. The series is described as follows: XTT proliferation (cytotoxicity) assay, 22RV1. The format is cell-based. The procedure: as §1
A 96-well plate (Falcon) was used for the XTT proliferation assay. Cancer cells were grown for 24 hours (day 1) in RPMI-1640 medium ([…] cells/100 μl for LLC, CL1, 22RVI, DU 145 and PC3, respectively) supplemented with 10% fetal calf serum and antibiotics, at 37° C., in humidified atmosphere at 5% CO2 and 95% air, resulting in growth medium pH of 7.4. NIH-3T3 fibroblast cells (1×10^4 cells/100 μl) were grown in DMEM medium supplemented with 10% bovine calf serum and antibiotics under the same conditions as described above for the cancerous cells. Wells in the last two rows served as blanks (medium only, for measuring the background color of the medium) and 100% survival controls (cells and medium only without treatment), respectively.
In day 2, the peptides were dissolved in sterile PBS to a concentration of 200 μM (or 500 μM). The medium in the assay wells was replaced with 100 μl serum free medium. For the assays at pH 6, the medium was initially concentrated (×5 or ×10) and then diluted with double distilled water and addition of sodium carbonate. Before reaching the correct dilution, the medium was adjusted to pH 6 and then more water was added to reach the final dilution. The cells were grown in physiological pH, and the acidic pH was used only during the 24 hours incubation with the peptides. A sign for the correct acidity was a light yellow color of the medium. In line A of the plate, 160 μl of serum free medium was added, if the initial peptide concentration was 500 μM.
Peptide solutions, 100 μl (or 40 μl) were added to each assay well in line A, such that the final concentration of the peptide was […] and the volume 200 μl. The medium in the wells was mixed with multichannel pipette 5 times and 100 μl of it were transferred to the next row of wells (line B), to give a peptide concentration of 50 μM. The double dilution of the peptides continued downstream the plate in the same manner. The plates were then incubated for 24 h.
In day 3, XTT reaction solution was prepared by adding to 100 μl aliquots of activation solution (sodium 3′-[1-(phenyl-aminocarbonyl)-3,4-tetrazolium]-bis(4-methoxy-6-nitro) benzene sulfonic acid hydrate and N-methyl dibenzopyrazine methyl sulfate; mixed in a proportion of 50:1) (protected from light and kept in −20° C.), the substrate. 50 μl of XTT reaction solution were added to each well and the plates were incubated for 2 hours (37° C. and 5% CO2+95% air. In cases the incubation was not enough for the creation of the color, it was extended for up to 24 hours). The optical density was read at wavelength of 450 nm in an ELISA plate reader. Cell viability was determined relative to the control and final results were recorded. The results were confirmed using replications in at least three independent experiments. The LC50 for each peptide was obtained from the curve of cell viability versus concentration of peptide and taken from the concentration at which cell viability was 50%. The data shown in Table 1 are for only one experiment, but representative of all replications.

In the case of `CC(C)C[C@H](NC(=O)[C@H](CC(C)C)NC(=O)[C@@H](CCCCN)NC(=O)[C@H](CC(C)C)NC(=O)[C@H](CC(C)C)NC(=O)[C@H](Cc1c[nH]cn1)NC(=O)[C@@H](CCCCN)NC(=O)[C@@H](CC(C)C)NC(=O)[C@H](CC(C)C)NC(=O)[C@@H](CCCCN)NC(=O)[C@H](Cc1c[nH]cn1)NC(=O)[C@H](CC(C)C)NC(=O)[C@@H](CC(C)C)NC(=O)[C@H](CCCCN)NC(=O)[C@@H](N)CC(C)C)C(N)=O` [Peptide 13] (H-LK[dL]LH[dK]L[dL][dK]HLL[dK]LL-NH2), the tumor weight result in series [1] (CL1 xenograft, 1 mg/kg intratumorally, 9 doses) is on record as “significant reduction”. Besides, the “body weight of the animals compared with vehicle-treated control group” value in series [1] (prostate cancer xenografts (CL1, 22RV1)) is “increase”. The “body weight compared with vehicle treated control group” value in series [2] (mouse, in vivo) is listed as “significant increase”. Besides, in series [2] (systemic administration, vs untreated controls), the lung metastases result is recorded as “entirely abolished”. For the same compound, the “clinical signs of toxicity (condition of animals)” value in series [2] (throughout the assay period) is on record as “good condition”. The “Lethal Concentration (LC50)” value in series [3] is 25 µg/mL; in the series with 22RV1 human PC cells (22RV1, pH 6, 24 h) it was 12.5 µg/mL; in the series on 22RV1 human PC cells (22RV1, pH 7.4, 24 h), 12.5 µg/mL. Further, the “activity preserved upon interaction with the Matrigel matrix” value in series [4] is listed as roughly 50%.
